In US10544112B2, “Identification of ebsulfur analogues with broad-spectrum antifungal activity” (priority 2017, dated 2020) one finds MIC-2, MIC and MIC-0 data, which are given here for one compound.

Each structure is given as a SMILES string. Values after ≈ are worked out from the molar mass of the structure shown. Marks after values point to notes of the source that are not given here. Some results are limits rather than exact numbers.

Experiment [1] deals with C. albicans ATCC MYA-2310(S) (strain E). To be noted: azoles, previously reported (Shrestha 2015); cited from earlier work.
For experiment [2], the system named is C. albicans ATCC MYA-1237(R) (strain F). The settings on record: azoles, previously reported (Shrestha 2015); cited from earlier work.
Experiment [3] deals with C. albicans ATCC 90819(R) (strain D). The settings on record: azoles, previously reported (Shrestha 2015); cited from earlier work.
Experiment [4] deals with C. albicans ATCC MYA-2876(S) (strain C). The settings on record: azoles, previously reported (Shrestha 2015); cited from earlier work.
The test system of experiment [5] is Aspergillus terreus ATCC MYA-3633 (strain M). Nature of the experiment: Antifungal MIC determination, filamentous fungi spores. Type of experiment: cell-based. The settings on record: Aspergillus terreus; strain M; all compounds; spores; read-out: MIC-0. In short, it runs like this: (§1)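 A modified CLSI M27-A3 protocol is used, with final compound levels from 12.5 to 0.02 μg/mL in two-fold steps. Cells are incubated at 5×10^3 CFU/mL in buffered RPMI 1640 at 35° C for 48 h.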

The test system of experiment [6] is Aspergillus flavus ATCC MYA-3631 (strain K). Described as above. The class given is cell-based. The settings on record: Aspergillus flavus, all compounds, read-out: MIC-0. In short, it runs like this:
as §1

Experiment [7] concerns C. albicans ATCC 64124 (strain B). To be noted: azoles, previously reported (Shrestha 2015); cited from earlier work.
Experiment [8] concerns Candida glabrata ATCC 2001 (strain H). Put plainly: Antifungal MIC determination (CLSI M27-A3, 96-well). Type of experiment: cell-based. The settings on record: Nakaseomyces glabratus, ATCC2001; strain H; azoles; read-out: MIC-2. In short, it runs like this:
as §1

For experiment [9], the system named is Candida parapsilosis ATCC 22019 (strain J). The experiment is described as above. Type of experiment: cell-based. The settings on record: Lodderomyces parapsilosis, ATCC22019; strain J; azoles; read-out: MIC-2. In short, it runs like this:
as §1

The test system of experiment [10] is Candida krusei ATCC 6258 (strain I). The description is as above. The class given is cell-based. To be noted: Pichia kudriavzevii, ATCC6258; strain I; azoles; read-out: MIC-2. The gist of the method: as §1
Experiment [11] has as its system Aspergillus nidulans ATCC 38163 (strain L). The settings on record: azoles, previously reported (Shrestha 2015); cited from earlier work.
The test system of experiment [12] is C. albicans ATCC MYA-1003(R) (strain G). The settings on record: azoles, previously reported (Shrestha 2015); cited from earlier work.
The subject of experiment [13] is Candida albicans ATCC 10231 (strain A). The settings on record: azoles, previously reported (Shrestha 2015); cited from earlier work.

A word on the MIC: it is the least concentration at which growth counts as inhibited. With `CC[C@@H]([C@H](C)O)n1ncn(-c2ccc(N3CCN(c4ccc(OC[C@@H]5CO[C@@](Cn6cncn6)(c6ccc(F)cc6F)C5)cc4)CC3)cc2)c1=O` [POS, posaconazole], the MIC-2 was 31.2^a μg/mL in [1]; 15.6^a μg/mL in [2]; 31.2^a μg/mL in experiment [3]; 7.8a μg/mL in [4]; >62.5^a μg/mL in experiment [7]; 15.6^a μg/mL in experiment [12]. Moreover, in [13], the MIC-2 is on record as 0.5^a μg/mL. Moreover, the MIC in experiment [5] is 0.48 µg/mL (≈ 0.685 µM); in experiment [6] it was 0.24 µg/mL (≈ 0.342 µM); in experiment [8], 0.12 µg/mL (≈ 0.171 µM); in experiment [9], less than 0.03 µg/mL; in experiment [10] it was 0.06 µg/mL (≈ 0.0856 µM). In experiment [11], the MIC-0 is 0.195^a μg/mL.
